Among the data in PubChem BioAssay (NCI) are TGI and GI50 values, retold here.

Some test systems named below: RPMI-8226 leukemia; 786-0 renal; SK-MEL-2 melanoma; ACHN renal; U251 CNS; CCRF-CEM leukemia; UACC-62 melanoma; SN12C renal; NCI-H23 lung; SK-OV-3 ovarian.
Common to all, as to experiment: NCI tumour cell line growth inhibition, 48 h

“And” between values parts separate entries of the source, which are not always exact repeats. Identical values can stand only once.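 Tested at 5 concentrations; 48 h exposure; 96-well plates; endpoints linearly interpolated, else capped at highest concentration. GI50: concentration for 50% inhibition of growth. At the TGI there is no net growth.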 A value given as a limit tells only on which side of the number the result lay.

In the case of `CC(=O)N(CCN1C(=O)c2ccccc2C1=O)CCN1C(=O)c2ccccc2C1=O`, the TGI with RPMI-8226 leukemia, in the assay on 786-0 renal, in the assay on SK-MEL-2 melanoma, in the assay on ACHN renal, in the assay on U251 CNS and with CCRF-CEM leukemia was above 100 µM in each case. Besides, the TGI in the assay on UACC-62 melanoma, in the assay on SN12C renal, in the assay with NCI-H23 lung and in the assay on SK-OV-3 ovarian was above 100 µM each time.

As for `NC(CO)c1ccc(OCc2ccccc2)cc1` (stereo not drawn), the TGI in the assay with RPMI-8226 leukemia, in the assay with 786-0 renal, in the assay with SK-MEL-2 melanoma, in the assay on ACHN renal, with U251 CNS and in the assay on CCRF-CEM leukemia was above 100 µM each time. The TGI in the assay on UACC-62 melanoma, with SN12C renal, with NCI-H23 lung and in the assay with SK-OV-3 ovarian was above 100 µM in each case.

Regarding `CCC(C)(C)[C@H](NC(=O)[C@H]1CCCCN1C)C(=O)N(C)[C@H](C[C@@H](OC(C)=O)c1nc(C(=O)N[C@@H](Cc2ccccc2)C[C@H](C)C(=O)O)cs1)C(C)C`, the GI50 in the assay with RPMI-8226 leukemia, in the assay with 786-0 renal, in the assay on SK-MEL-2 melanoma, in the assay on ACHN renal, in the assay on U251 CNS and in the assay with CCRF-CEM leukemia was below 0.00167 µM each time. The GI50 in the assay with UACC-62 melanoma, in the assay with SN12C renal, in the assay on NCI-H23 lung and in the assay on SK-OV-3 ovarian was below 0.00167 µM each time. In addition, the TGI with RPMI-8226 leukemia, in the assay with 786-0 renal, with SK-MEL-2 melanoma, with ACHN renal, with U251 CNS and in the assay with CCRF-CEM leukemia was above 16.7 µM throughout. In addition, the TGI in the assay on UACC-62 melanoma, in the assay with SN12C renal, with NCI-H23 lung and in the assay with SK-OV-3 ovarian was above 16.7 µM throughout.

With `CCOC(=O)Nc1ccc2c(c1)N(C(=O)CCN(CC)CC)c1ccccc1S2`, the GI50 was 13 µM in the assay with RPMI-8226 leukemia; 30.5 µM in the assay with SK-MEL-2 melanoma; 39.8 µM in the assay on U251 CNS; 17 µM with CCRF-CEM leukemia; 46.7 µM with UACC-62 melanoma; 24.3 µM in the assay with SN12C renal. Further, the GI50 in the assay with NCI-H23 lung was 36.4 µM; in the assay with SK-OV-3 ovarian it was 106 µM. Also, the TGI with RPMI-8226 leukemia is 51 µM and 47.5 µM; in the assay with 786-0 renal, 69.8 µM; in the assay with SK-MEL-2 melanoma, 43.6 µM and 83.7 µM; in the assay on ACHN renal, above 95.5 µM; with U251 CNS, > 72.1 µM and 108 µM; in the assay on CCRF-CEM leukemia, > 91.2 µM and 66.9 µM. The TGI with UACC-62 melanoma is 52.8 µM and 112 µM; with SN12C renal, > 76.8 µM and 85.3 µM; in the assay on NCI-H23 lung, > 90.5 µM and 114 µM; with SK-OV-3 ovarian, 70.7 µM and 183 µM.

Take `NC(=S)N/N=C(\CCC(=O)Nc1ccccc1[N+](=O)[O-])CC(=O)c1ccco1`: the TGI in the assay on RPMI-8226 leukemia, in the assay with 786-0 renal, in the assay with SK-MEL-2 melanoma, in the assay on ACHN renal, in the assay with U251 CNS and in the assay on CCRF-CEM leukemia was above 100 µM throughout. The TGI with UACC-62 melanoma, in the assay with SN12C renal, in the assay on NCI-H23 lung and with SK-OV-3 ovarian was above 100 µM in each case.

In the case of `O=c1c(O)cc2c(O)oc3c(=O)c(O)c(O)c4c(O)oc1c2c43`, the TGI in the assay on RPMI-8226 leukemia was above 100 µM; in the assay with 786-0 renal it was above 100 µM; with SK-MEL-2 melanoma it was above 100 µM; in the assay on ACHN renal, above 100 µM; in the assay on U251 CNS, 34.3 µM; in the assay with CCRF-CEM leukemia it was above 100 µM. Further, the TGI is above 100 µM with UACC-62 melanoma, 36.5 µM in the assay on SN12C renal, above 100 µM in the assay on NCI-H23 lung and above 100 µM in the assay on SK-OV-3 ovarian.

For the compound `O=C(Cc1ccc(Nc2ccnc(C(F)(F)F)c2)cc1)N/N=C/c1ccccc1O`, the GI50 in the assay on RPMI-8226 leukemia is 0.824 µM; in the assay on 786-0 renal, 3.59 µM; in the assay on SK-MEL-2 melanoma, 3.12 µM; with ACHN renal, 1.46 µM; in the assay on U251 CNS, 1.87 µM; in the assay on CCRF-CEM leukemia, 0.716 µM. The GI50 in the assay with UACC-62 melanoma is 2.17 µM; in the assay with SN12C renal, 2.9 µM; with NCI-H23 lung it was 4.23 µM; with SK-OV-3 ovarian, 3.13 µM. The TGI is 16.2 µM in the assay on RPMI-8226 leukemia; above 62.7 µM in the assay on 786-0 renal; 24.5 µM with SK-MEL-2 melanoma; above 51.4 µM in the assay with ACHN renal; above 54.8 µM in the assay with U251 CNS; 8.31 µM in the assay on CCRF-CEM leukemia. Further, the TGI was 21.5 µM with UACC-62 melanoma, above 58.6 µM in the assay on SN12C renal, above 59.1 µM in the assay with NCI-H23 lung and above 68.5 µM in the assay with SK-OV-3 ovarian.

Take `CCN1C(=O)N(CC)C2C1NC(=S)N2/N=C/C=C/c1ccccc1OC` (stereo not drawn): the GI50 is 0.0431 µM with RPMI-8226 leukemia; below 0.0212 µM with 786-0 renal; 1.1 µM in the assay on SK-MEL-2 melanoma; 0.0401 µM in the assay with ACHN renal; 0.0427 µM with U251 CNS; 0.0373 µM in the assay on CCRF-CEM leukemia. The GI50 in the assay on UACC-62 melanoma was 0.0458 µM; in the assay on SN12C renal it was 0.0494 µM; with NCI-H23 lung, 0.0412 µM; in the assay with SK-OV-3 ovarian, 0.0368 µM. For the same compound, the TGI was 30.9 µM in the assay with RPMI-8226 leukemia; above 100 µM in the assay with 786-0 renal; above 100 µM in the assay on SK-MEL-2 melanoma; above 100 µM in the assay with ACHN renal; above 100 µM in the assay on U251 CNS; above 100 µM with CCRF-CEM leukemia. The TGI with UACC-62 melanoma, in the assay with SN12C renal, in the assay with NCI-H23 lung and in the assay with SK-OV-3 ovarian was above 100 µM throughout.

As to `Cn1c2cc([N+](=O)[O-])ccc2c(=O)c2c(O)cc3c(c21)C=CC(C)(C)O3`, the TGI in the assay on RPMI-8226 leukemia, with 786-0 renal, in the assay on SK-MEL-2 melanoma, in the assay on ACHN renal, in the assay on U251 CNS and in the assay with CCRF-CEM leukemia was above 100 µM in each case. The TGI is above 100 µM in the assay with UACC-62 melanoma, above 100 µM with SN12C renal, above 100 µM in the assay on NCI-H23 lung and 87.8 µM with SK-OV-3 ovarian.

As to `Brc1ccc(Nc2nc3ccccc3nc2Nc2ccc(Br)cc2)cc1`, the GI50 with RPMI-8226 leukemia was 0.756 µM; in the assay with 786-0 renal it was 1.73 µM; in the assay on SK-MEL-2 melanoma it was 2.26 µM; with ACHN renal it was 0.583 µM; in the assay with U251 CNS, 0.429 µM; with CCRF-CEM leukemia it was 1.01 µM. Besides, the GI50 is 1.94 µM in the assay with UACC-62 melanoma, 2.16 µM in the assay with SN12C renal, 1.32 µM in the assay with NCI-H23 lung and 2.14 µM with SK-OV-3 ovarian. Moreover, the TGI was determined as 5.87 µM in the assay with RPMI-8226 leukemia; 5.9 µM in the assay on 786-0 renal; 5.48 µM in the assay with SK-MEL-2 melanoma; 3.22 µM in the assay on ACHN renal; 2.22 µM with U251 CNS; 10.7 µM in the assay on CCRF-CEM leukemia. The TGI in the assay on UACC-62 melanoma stood at 5.37 µM; with SN12C renal, 6.5 µM; in the assay with NCI-H23 lung it was 6.52 µM; with SK-OV-3 ovarian it was 7.69 µM.

Turning to `N#Cc1c2ccccc2c2nnc3ccc(C(F)(F)F)cc3n12`, the GI50 in the assay on RPMI-8226 leukemia was 29.4 µM; in the assay with 786-0 renal it was above 100 µM; in the assay with SK-MEL-2 melanoma, 23.5 µM; with ACHN renal, 27.3 µM; in the assay on U251 CNS, 28.9 µM; in the assay on CCRF-CEM leukemia, 71 µM. Besides, the GI50 is 66.8 µM with UACC-62 melanoma, above 100 µM with SN12C renal, 33.5 µM with NCI-H23 lung and 89.9 µM in the assay with SK-OV-3 ovarian. Moreover, the TGI was above 100 µM in the assay with RPMI-8226 leukemia; above 100 µM in the assay with 786-0 renal; 85.2 µM with SK-MEL-2 melanoma; above 100 µM in the assay on ACHN renal; above 100 µM with U251 CNS; above 100 µM with CCRF-CEM leukemia. Also, the TGI in the assay on UACC-62 melanoma, with SN12C renal, with NCI-H23 lung and in the assay with SK-OV-3 ovarian was above 100 µM throughout.

For the compound `CCN(CC)CC(O)COc1c(Br)c(Br)c(Br)c2c1OC(C)(C)C2` (stereo not drawn), the GI50 was 2.01 µM in the assay on RPMI-8226 leukemia; 3.13 µM in the assay on 786-0 renal; 3.55 µM in the assay on SK-MEL-2 melanoma; 4.94 µM in the assay on ACHN renal; 4.48 µM with U251 CNS; 1.96 µM in the assay with CCRF-CEM leukemia. The GI50 in the assay with UACC-62 melanoma is 1.9 µM; in the assay on SN12C renal, 6.22 µM; with NCI-H23 lung, 9.04 µM; with SK-OV-3 ovarian it was 16.7 µM. The TGI is 4.45 µM in the assay on RPMI-8226 leukemia; 11.9 µM with 786-0 renal; 15.4 µM in the assay on SK-MEL-2 melanoma; 16.4 µM in the assay with ACHN renal; 14.8 µM with U251 CNS; 4.08 µM in the assay on CCRF-CEM leukemia. Also, the TGI worked out at 3.47 µM in the assay with UACC-62 melanoma, 19.8 µM in the assay on SN12C renal, 28.9 µM in the assay on NCI-H23 lung and 36.4 µM with SK-OV-3 ovarian.

In the case of `FC(F)(F)c1cc(-c2ncn(/C=C\c3nnco3)n2)cc(C(F)(F)F)c1`, the GI50 was 0.0336 µM in the assay on RPMI-8226 leukemia; 0.0869 µM in the assay with 786-0 renal; 0.031 µM with SK-MEL-2 melanoma; 0.163 µM in the assay on ACHN renal; 0.0402 µM in the assay with U251 CNS; 0.107 µM in the assay on CCRF-CEM leukemia. Besides, the GI50 in the assay on UACC-62 melanoma was 0.189 µM; in the assay with SN12C renal it was 0.417 µM; in the assay with NCI-H23 lung it was 0.146 µM; in the assay on SK-OV-3 ovarian, 0.223 µM. Further, the TGI with RPMI-8226 leukemia is 15.6 µM; in the assay with 786-0 renal it was above 32.3 µM; in the assay with SK-MEL-2 melanoma, 0.251 µM; with ACHN renal it was above 96.2 µM; with U251 CNS it was 15.6 µM; in the assay on CCRF-CEM leukemia, above 100 µM. Besides, the TGI in the assay with UACC-62 melanoma was 6.76 µM; in the assay with SN12C renal it was above 100 µM; with NCI-H23 lung, above 41.4 µM; with SK-OV-3 ovarian, above 67.3 µM.

As to `O=c1[nH]c2ccccc2n2cc3ccccc3c12`, the GI50 in the assay with RPMI-8226 leukemia is 3.7 µM; with 786-0 renal, 4.23 µM; in the assay with SK-MEL-2 melanoma, 20.6 µM; with ACHN renal, 1.81 µM; in the assay on U251 CNS, 3.25 µM; with CCRF-CEM leukemia it was 5.93 µM. Besides, the GI50 is 3.22 µM in the assay on UACC-62 melanoma, 1.67 µM with SN12C renal, 11.1 µM with NCI-H23 lung and 12.4 µM in the assay with SK-OV-3 ovarian. In addition, the TGI worked out at 22.6 µM in the assay with RPMI-8226 leukemia; 18.1 µM with 786-0 renal; 38.8 µM in the assay with SK-MEL-2 melanoma; 7.18 µM in the assay on ACHN renal; 13.4 µM in the assay with U251 CNS; 60.5 µM in the assay on CCRF-CEM leukemia. Besides, the TGI in the assay on UACC-62 melanoma is 15.8 µM; with SN12C renal, 6.32 µM; in the assay on NCI-H23 lung it was 36.6 µM; in the assay on SK-OV-3 ovarian it was 35.8 µM.
